Legend:
Assay type in all cases: in vivo
[1] = tested on: Bactrocera oleae (olive fly); experiment: Uptake of alkylated porphyrins by flies fed porphyrin-containing bait; settings: B. oleae
Experimental: (§1) Porphyrins: • a) meso[tri(N-methyl-pyridyl), mono(N-dodecyl-pyridyl)]porphine (abbr.: C12) • b) meso[tri(N-methyl-pyridyl), mono(N-tetradecyl-pyridyl)]porphine (abbr.: C14) • c) meso[tri(N-methyl-pyridyl), mono(N-octadecyl-pyridyl)]porphine (abbr.: C18) Bait: Aqueous solution containing 10% sucrose and 1% autolysed yeast Flies: • a) Ceratitis capitata (fruit fly) age: 1 week; weight: 5-6 mg • b) Bactrocera oleae (olive fly) age: 10 days; weight: 4-4.5 mg • c) Stomoxis calcitrans (stable fly) age: 10 days; weight: 12 mg Irradiation: • a) High pressure halogen lamp, equipped with infrared and UV filters, emission 360-850 nm, operated at intensities in the 760-2,000 μE s^−1m^−2 range • b) Sunlight, mid June at Padua latitude, average intensity of […] μE s^−1m^−2 with minimum and maximum values of 950 and, respectively, 1,380 μE s^−1m^−2
(§2) An appropriate number of flies (50 flies per each experiment) was caged in 115×55×70 mm Plexiglas cages with several holes (ø=0.5 mm) and starved for 36 h. Then, depending on the protocol to be adopted for each specific experiment, the flies were fed with the bait (10% sucrose and 1% autolysed yeast in neutral aqueous solution), which was either porphyrin-free or added with a predetermined concentration of the porphyrin. These flies were then used in the various experimental sessions.
(§3) At predetermined times, the flies were sacrificed by freezing; the dead flies were then homogenized with a Polytron in 10 ml of a 2% aqueous solution of sodium dodecylsulphate (SDS). The suspension was centrifuged for 10 min at 2,000 rpm, the pellet was discarded and known aliquots of the supernatant were diluted by means of a chloroform/methanol binary mixture (1/2, v/v). The porphyrin concentration was measured by reading the fluorescence emitted at wavelengths above 630 nm and interpolating the emission intensity with a calibration plot obtained with known amounts of the porphyrin. The results were expressed as nanomoles of porphyrin recovered per fly.

[2] = tested on: Ceratitis capitata (fruit fly); experiment: as above; settings: C. capitata
Experimental: as §1, §2, §3

[3] = tested on: Stomoxis calcitrans (stable fly); experiment: as above; settings: S. calcitrans
Experimental: as §1, §2, §3

[4] = tested on: Bactrocera oleae (olive fly); experiment: Release of alkylated porphyrin from flies after feeding with bait interrupted; settings: B. oleae, 1.25 μM porphyrin in the bait
Experimental: as §2, §3

[5] = tested on: Ceratitis capitata (fruit fly); experiment: as above; settings: C. capitata, 1.25 μM porphyrin in the bait
Experimental: as §2, §3

[6] = tested on: Stomoxis calcitrans (stable fly); experiment: as above; settings: S. calcitrans, 1.25 μM porphyrin in the bait
Experimental: as §2, §3

Bactrocera oleae flies = experiment: Insecticidal action in the dark: fly survival after porphyrin bait; settings: fed 24 h, survival 12 h after change to porphyrin-free bait
Experimental: (§4) These flies were then used in the various experimental sessions. […] The number of survivors was evaluated 12 h after switching from administration of a porphyrin-containing bait to a porphyrin-free bait. In none of the experiments was mortality or any apparent toxic effect observed in control flies (flies not fed with porphyrin, see survival at 0 μM porphyrin concentration).

[7] = tested on: Stomoxis calcitrans flies; experiment: as above; settings: fed 24 h, survival 12 h after change to porphyrin-free bait
Experimental: as §4

Ceratitis capitata flies [8] = experiment: Photoinsecticidal action: fly survival after bait and visible light irradiation (artificial lamp); settings: for Survival (% of control untreated flies): survival 10 h after irradiation
Experimental: as §1
The irradiations were performed for 1 h, then the flies were kept in dim light for monitoring the survival. Control flies were irradiated under identical conditions after feeding with a porphyrin-free bait.
The irradiations were performed for 1 h at a fluence-rate of 1220 μE s^−1m^−2. The survival was evaluated 10 h after the end of irradiation. […] The porphyrins are abbreviated as following: HP: haematoporphyrin; C1: meso-tetra(N-methyl-pyridyl)porphine.
The survival was evaluated 10 h after the end of irradiation.
An appropriate number of flies (50 flies per each experiment) was caged in 115×55×70 mm Plexiglas cages with several holes (ø=0.5 mm) and starved for 36 h. Then, depending on the protocol to be adopted for each specific experiment, the flies were fed with the bait (10% sucrose and 1% autolysed yeast in neutral aqueous solution), which was either porphyrin-free or added with a predetermined concentration of the porphyrin. These flies were then used in the various experimental sessions. […]

Ceratitis capitata flies [9] = experiment: Photoinsecticidal action: fly survival after bait and sunlight irradiation; settings: 3 μM in bait, 12 h after feeding, survival 1 h after irradiation
Experimental: as §1
The survival was evaluated 1 h after the end of irradiation.
as §2

[10] = exposure time to bait 3 h, porphyrin in bait 1.24 μM
[11] = exposure time to bait 12 h, porphyrin in bait 1.24 μM
[12] = exposure time to bait 24 h, porphyrin in bait 1.24 μM
[13] = porphyrin concentration in bait 0.75 (μmoles), feeding 24 h
[14] = porphyrin concentration in bait 1.25 (μmoles), feeding 24 h
[15] = porphyrin concentration in bait 2.10 (μmoles), feeding 24 h
[16] = porphyrin concentration in bait 3.50 (μmoles), feeding 24 h
[17] = porphyrin concentration in bait 6.00 (μmoles), feeding 24 h

SMILES: CCCCCCCCCCCCCC[n+]1ccc(-c2c3nc(c(-c4cc[n+](C)cc4)c4ccc([nH]4)c(-c4cc[n+](C)cc4)c4nc(c(-c5cc[n+](C)cc5)c5ccc2[nH]5)C=C4)C=C3)cc1 [C14, meso[tri(N-methyl-pyridyl), mono(N-tetradecyl-pyridyl)]porphine]
- Recoveries (nmoles of porphyrin per fly) [1, 10]: 2.2 nmoles of porphyrin per fly
- Recoveries (nmoles of porphyrin per fly) [1, 11]: 3.7 nmoles of porphyrin per fly
- Recoveries (nmoles of porphyrin per fly) [1, 12]: 4.8 nmoles of porphyrin per fly
- Recoveries (nmoles of porphyrin per fly) [1, 13]: 3.9 nmoles of porphyrin per fly
- Recoveries (nmoles of porphyrin per fly) [1, 14]: 4.8 nmoles of porphyrin per fly
- Recoveries (nmoles of porphyrin per fly) [1, 15]: 8.5 nmoles of porphyrin per fly
- Recoveries (nmoles of porphyrin per fly) [1, 16]: 10.6 nmoles of porphyrin per fly
- Recoveries (nmoles of porphyrin per fly) [1, 17]: 13.8 nmoles of porphyrin per fly
- Recoveries (nmoles of porphyrin per fly) [2, 10]: 2.9 nmoles of porphyrin per fly
- Recoveries (nmoles of porphyrin per fly) [2, 11]: 5.3 nmoles of porphyrin per fly
- Recoveries (nmoles of porphyrin per fly) [2, 12]: 5.7 nmoles of porphyrin per fly
- Recoveries (nmoles of porphyrin per fly) [2, 13]: 2.6 nmoles of porphyrin per fly
- Recoveries (nmoles of porphyrin per fly) [2, 14]: 5.7 nmoles of porphyrin per fly
- Recoveries (nmoles of porphyrin per fly) [2, 15]: 9.6 nmoles of porphyrin per fly
- Recoveries (nmoles of porphyrin per fly) [2, 16]: 11.5 nmoles of porphyrin per fly
- Recoveries (nmoles of porphyrin per fly) [2, 17]: 14.0 nmoles of porphyrin per fly
- Recoveries (nmoles of porphyrin per fly) [3, 10]: 2.4 nmoles of porphyrin per fly
- Recoveries (nmoles of porphyrin per fly) [3, 11]: 5.6 nmoles of porphyrin per fly
- Recoveries (nmoles of porphyrin per fly) [3, 12]: 6.2 nmoles of porphyrin per fly
- Recoveries (nmoles of porphyrin per fly) [3, 13]: 4.1 nmoles of porphyrin per fly
- Recoveries (nmoles of porphyrin per fly) [3, 14]: 6.2 nmoles of porphyrin per fly
- Recoveries (nmoles of porphyrin per fly) [3, 15]: 10.2 nmoles of porphyrin per fly
- Recoveries (nmoles of porphyrin per fly) [3, 16]: 12.5 nmoles of porphyrin per fly
- Recoveries (nmoles of porphyrin per fly) [3, 17]: 12.8 nmoles of porphyrin per fly
- Recoveries (nmoles of porphyrin per fly), release ([4]; 12 h after feeding interrupted): 3.2 nmoles of porphyrin per fly
- Recoveries (nmoles of porphyrin per fly), release ([4]; 24 h after feeding interrupted): 2.0 nmoles of porphyrin per fly
- Recoveries (nmoles of porphyrin per fly), release ([4]; 48 h after feeding interrupted): 0.6 nmoles of porphyrin per fly
- Recoveries (nmoles of porphyrin per fly), release ([5]; 12 h after feeding interrupted): 3.0 nmoles of porphyrin per fly
- Recoveries (nmoles of porphyrin per fly), release ([5]; 24 h after feeding interrupted): 1.8 nmoles of porphyrin per fly
- Recoveries (nmoles of porphyrin per fly), release ([5]; 48 h after feeding interrupted): 0.7 nmoles of porphyrin per fly
- Recoveries (nmoles of porphyrin per fly), release ([6]; 12 h after feeding interrupted): 4.3 nmoles of porphyrin per fly
- Recoveries (nmoles of porphyrin per fly), release ([6]; 24 h after feeding interrupted): 2.2 nmoles of porphyrin per fly
- Recoveries (nmoles of porphyrin per fly), release ([6]; 48 h after feeding interrupted): 0.8 nmoles of porphyrin per fly
- Survival (% of control untreated flies) (Bactrocera oleae flies; 0.75 μM in bait): 100 % of control untreated flies
- Survival (% of control untreated flies) (Bactrocera oleae flies; 1.25 μM in bait): 100 % of control untreated flies
- Survival (% of control untreated flies) (Bactrocera oleae flies; 2.10 μM in bait): 69 % of control untreated flies
- Survival (% of control untreated flies) (Bactrocera oleae flies; 3.00 μM in bait): 50 % of control untreated flies
- Survival (% of control untreated flies) (Bactrocera oleae flies; 5.00 μM in bait): 37 % of control untreated flies
- Survival (% of control untreated flies) (Bactrocera oleae flies; 8.10 μM in bait): 19 % of control untreated flies
- Survival (% of control untreated flies) ([7]; 0.75 μM in bait): 100 % of control untreated flies
- Survival (% of control untreated flies) ([7]; 1.25 μM in bait): 77 % of control untreated flies
- Survival (% of control untreated flies) ([7]; 2.10 μM in bait): 52 % of control untreated flies
- Survival (% of control untreated flies) ([7]; 3.00 μM in bait): 31 % of control untreated flies
- Survival (% of control untreated flies) ([7]; 5.00 μM in bait): 11 % of control untreated flies
- Survival (% of control untreated flies) ([7]; 8.10 μM in bait): 3 % of control untreated flies
- Survival (% of control untreated flies) (Ceratitis capitata flies [8]; 3 μM in bait 24 h, time interval feeding-irradiation 0 h, irradiation 1 h at 1220 μE s^−1m^−2): 0 % of control untreated flies
- Survival (% of control untreated flies) (Ceratitis capitata flies [8]; 3 μM in bait 24 h, time interval feeding-irradiation 12 h, irradiation 1 h at 1220 μE s^−1m^−2): 0 % of control untreated flies
- Survival (% of control untreated flies) (Ceratitis capitata flies [8]; 3 μM in bait 24 h, time interval feeding-irradiation 24 h, irradiation 1 h at 1220 μE s^−1m^−2): 10 % of control untreated flies
- Survival (% of control untreated flies) (Ceratitis capitata flies [8]; 3 μM in bait 24 h, time interval feeding-irradiation 48 h, irradiation 1 h at 1220 μE s^−1m^−2): 21 % of control untreated flies
- Survival (% of control untreated flies) (Ceratitis capitata flies [8]; 3 μM in bait, fluence-rate 760 μE s^−1m^−2, irradiated 24 h after feeding (title)): 10 % of control untreated flies
- Survival (% of control untreated flies) (Ceratitis capitata flies [8]; 3 μM in bait, fluence-rate 1220 μE s^−1m^−2, irradiated 24 h after feeding (title)): 0 % of control untreated flies
- Survival (% of control untreated flies) (Ceratitis capitata flies [8]; 3 μM in bait, fluence-rate 1500 μE s^−1m^−2, irradiated 24 h after feeding (title)): 0 % of control untreated flies
- Survival (% of control untreated flies) (Ceratitis capitata flies [8]; 3 μM in bait, fluence-rate 2000 μE s^−1m^−2, irradiated 24 h after feeding (title)): 0 % of control untreated flies
- time by which essentially all flies died (Ceratitis capitata flies [8]; after 1 h illumination with artificial light or sunlight): ≤ 45 min
- photoinsecticidal action compared among alkylated porphyrins (Ceratitis capitata flies [8]; irradiation with visible light or sunlight): most efficient insecticidal action
- Survival (% of control untreated flies) (Ceratitis capitata flies [9]; sunlight (average 1150 μE s^−1m^−2) 15 min): 21 % of control untreated flies
- Survival (% of control untreated flies) (Ceratitis capitata flies [9]; sunlight (average 1150 μE s^−1m^−2) 30 min): 10 % of control untreated flies
- Survival (% of control untreated flies) (Ceratitis capitata flies [9]; sunlight (average 1150 μE s^−1m^−2) 45 min): 0 % of control untreated flies
- Survival (% of control untreated flies) (Ceratitis capitata flies [9]; sunlight (average 1150 μE s^−1m^−2) 60 min): 0 % of control untreated flies
